# Laboratory results published in patent publication USH1209H, “No-carrier-added (18F)-N-methylspiroperidol” (The United States of America as represented by the United …, priority 1985, dated 1993).
# Like-named read-outs stand apart in the source and are kept apart here.
# Columns and labels:
# [1] = tested on: dopamine receptors; experiment: PETT baboon studies: striatum and cerebellum radioactivity after i.v. [^18 F]-N-methylspiroperidol, with (-)- or (+)-butaclamol pretreatment
# Excerpt: (§1) A young adult (12 kg) female baboon (Papio anubis) was anesthesized initially with ketamine and subsequently maintained under halothane/nitrous oxide anesthesia for two PETT studies. […] Pett scans were made continually for 4 hrs from the time of radioisotope injection.
# [2] = Baboon plasma analyses (total plasma radioactivity clearance and unchanged radioligand); conditions: for remaining at 40 s / remaining at 4 min / remaining at 10 min / remaining at 0.5 h / remaining at 1 h / remaining at 2 h / remaining at 3 h / remaining at 4 h: plasma; for remaining at 40 s: 0.67 min after injection; for remaining at 4 min: 4.0 min after injection; for remaining at 0.5 h: 30 min after injection; for remaining at 1 h: 60 min after injection; for remaining at 2 h: 120 min after injection; for remaining at 3 h: 180 min after injection; for remaining at 4 h: 240 min after injection
# Excerpt: as §1
# Blood was sampled from the femoral artery at initial intervals of 5 secs. Aliquots of plasma were counted to determine the total plasma radioactivity of clearance curves.
# [3] = Metabolic stability and uptake in rat brain (striatum, cerebellum); format: in vivo, rat (male BNL R strain); conditions: for remaining at 1 h / remaining at 4 h: iv, n = 2; for remaining at 1 h: 1 h after injection; for remaining at 4 h: 4 h after injection
# [4] = Tissue distribution of radioactivity in mice; format: in vivo, mouse; conditions: for tissue uptake at 5 min / tissue uptake at 1 h / tissue uptake at 2 h: read-out: Tissue distribution, % Dose/g
# Excerpt: As noted in Example 3 for the rat, the mouse brain uptake of radioactivity was higher for radiolabeled N-methylspiroperidol (1.1% of the administered dose).
# [5] = baboon, iv, % [^18 F]-N-Methylspiroperidol in Plasma, baboon plasma
# [6] = baboon, iv, % of ^18 F in CH3 CN as [^18 F]-N-Methylspiroperidol, baboon plasma
smiles,measurement,setting,value
CN1CN(c2ccccc2)C2(CCN(CCCC(=O)c3ccc([18F])cc3)CC2)C1=O [[^18 F]-N-methylspiroperidol],specifically bound component of radioactivity in the striatum (striatum minus cerebellum),[1]; 4 hrs after injection,still increasing at 4 hrs after injection
same,"striatum and cerebellum radioactivity curves, access to specific binding sites",[1]; after 0.5 mg/kg (+)-butaclamol pretreatment,no longer had access to specific binding sites
same,radioactivity in the cerebellum,"[1]; after the first few minutes, control study",declined rapidly in the cerebellum
same,"absolute striatal uptake, excess over [^18 F]spiroperidol","[1]; control study, (-)-butaclamol 0.5 mg/kg pretreatment",more than two-fold
same,Influx into striatum and cerebellum,"[1]; first few minutes, control study",equal for the first few minutes
same,radioactivity in the striatum,"[1]; up to 4 hrs, control study",increasing for up to 4 hrs in the striatum
same,time course of distribution compared with [^18 F]spiroperidol,[2]; Example 2,more rapid
same,appearance of peripheral radioactive metabolites compared with [^18 F]spiroperidol,[2]; baboon plasma,more rapid
same,time for blood radioactivity to drop below the brain concentration,"[2]; baboon, after injection",≤ 90 s
same,remaining at 40 s,[2]; [5],81%
same,remaining at 4 min,[2]; [5],66%
same,remaining at 10 min,"[2]; baboon, iv, % [^18 F]-N-Methylspiroperidol in Plasma, baboon plasma, 10 min after injection",43%
same,remaining at 0.5 h,[2]; [5],18%
same,remaining at 1 h,[2]; [5],18%
same,remaining at 2 h,[2]; [5],11%
same,remaining at 3 h,[2]; [5],11%
same,remaining at 4 h,[2]; [5],9.4%
same,remaining at 40 s,[2]; [6],88%
same,remaining at 4 min,[2]; [6],78%
same,remaining at 10 min,"[2]; baboon, iv, % of ^18 F in CH3 CN as [^18 F]-N-Methylspiroperidol, baboon plasma, 10 min after injection",60%
same,remaining at 0.5 h,[2]; [6],32%
same,remaining at 1 h,[2]; [6],36%
same,remaining at 2 h,[2]; [6],26%
same,remaining at 3 h,[2]; [6],29%
same,remaining at 4 h,[2]; [6],26%
same,remaining at 10 min,"[2]; baboon, plasma radioactivity due to unaltered radioligand, baboon plasma, 10 mins after injection",43%
same,blood clearance,"[2]; baboon, total plasma radioactivity",very rapid
same,remaining at 1 h,"[3]; rat cerebellum, ind. values 90, 90",90%
same,remaining at 4 h,"[3]; rat cerebellum, ind. values 85, 85",85%
same,remaining at 1 h,"[3]; rat striatum, ind. values 95, 96",96%
same,remaining at 4 h,"[3]; rat striatum, ind. values 98, 97",98%
same,metabolism in the rat brain,[3]; rat brain,very little metabolism
same,tissue distribution of radioactivity compared with that reported for N-[^11 C] methylspiroperidol,[4]; mouse,very little difference
same,tissue uptake at 5 min,"[4]; mouse blood, 5 min, mean of three mice, range 1.0-1.5",1.2 %ID/g
same,tissue uptake at 1 h,"[4]; mouse blood, 60 min, mean of three mice, range 0.40-0.50",0.45 %ID/g
same,tissue uptake at 2 h,"[4]; mouse blood, 120 min, mean of four mice, range 0.15-0.27",0.19 %ID/g
same,mouse brain uptake of radioactivity,[4]; mouse brain,1.1 % of the administered dose
same,"Tissue distribution, % Dose/Organ","[4]; mouse brain, 5 min, mean of three mice, range 1.0-1.1",1.1 % Dose/Organ
same,tissue uptake at 5 min,"[4]; mouse brain, 5 min, mean of three mice, range 2.2-2.4",2.3 %ID/g
same,"Tissue distribution, % Dose/Organ","[4]; mouse brain, 60 min, mean of three mice, range 0.60-0.74",0.68 % Dose/Organ
same,tissue uptake at 1 h,"[4]; mouse brain, 60 min, mean of three mice, range 1.3-1.8",1.5 %ID/g
same,"Tissue distribution, % Dose/Organ","[4]; mouse brain, 120 min, mean of four mice, range 0.43-0.68",0.57 % Dose/Organ
same,tissue uptake at 2 h,"[4]; mouse brain, 120 min, mean of four mice, range 1.1-1.6",1.3 %ID/g
same,"Tissue distribution, % Dose/Organ","[4]; mouse heart, 5 min, mean of three mice, range 0.35-0.42",0.37 % Dose/Organ
same,tissue uptake at 5 min,"[4]; mouse heart, 5 min, mean of three mice, range 3.2-3.4",3.3 %ID/g
same,"Tissue distribution, % Dose/Organ","[4]; mouse heart, 60 min, mean of three mice, range 0.064-0.076",0.072 % Dose/Organ
same,tissue uptake at 1 h,"[4]; mouse heart, 60 min, mean of three mice, range 0.59-0.65",0.61 %ID/g
same,"Tissue distribution, % Dose/Organ","[4]; mouse heart, 120 min, mean of four mice, range 0.020-0.030",0.026 % Dose/Organ
same,tissue uptake at 2 h,"[4]; mouse heart, 120 min, mean of four mice, range 0.18-0.35",0.24 %ID/g
same,"Tissue distribution, % Dose/Organ","[4]; mouse kidneys, 5 min, mean of three mice, range 4.2-4.8",4.5 % Dose/Organ
same,tissue uptake at 5 min,"[4]; mouse kidneys, 5 min, mean of three mice, range 11-13",12 %ID/g
same,"Tissue distribution, % Dose/Organ","[4]; mouse kidneys, 60 min, mean of three mice, range 1.1-1.3",1.2 % Dose/Organ
same,tissue uptake at 1 h,"[4]; mouse kidneys, 60 min, mean of three mice, range 3.0-4.0",3.4 %ID/g
same,"Tissue distribution, % Dose/Organ","[4]; mouse kidneys, 120 min, mean of four mice, range 0.40-0.57",0.46 % Dose/Organ
same,tissue uptake at 2 h,"[4]; mouse kidneys, 120 min, mean of four mice, range 1.2-1.8",1.5 %ID/g
same,tissue uptake at 5 min,"[4]; mouse liver, 5 min, mean of three mice, range 5.2-5.7",5.4 %ID/g
same,"Tissue distribution, % Dose/Organ","[4]; mouse liver, 5 min, mean of three mice, range 8.2-8.3",8.2 % Dose/Organ
same,tissue uptake at 1 h,"[4]; mouse liver, 60 min, mean of three mice, range 2.4-3.4",2.9 %ID/g
same,"Tissue distribution, % Dose/Organ","[4]; mouse liver, 60 min, mean of three mice, range 3.8-4.1",4.0 % Dose/Organ
same,tissue uptake at 2 h,"[4]; mouse liver, 120 min, mean of four mice, range 1.2-1.9",1.4 %ID/g
same,"Tissue distribution, % Dose/Organ","[4]; mouse liver, 120 min, mean of four mice, range 1.5-1.8",1.6 % Dose/Organ
same,"Tissue distribution, % Dose/Organ","[4]; mouse lungs, 5 min, mean of three mice, range 2.0-2.1",2.0 % Dose/Organ
same,tissue uptake at 5 min,"[4]; mouse lungs, 5 min, mean of three mice, range 11-14",13 %ID/g
same,"Tissue distribution, % Dose/Organ","[4]; mouse lungs, 60 min, mean of three mice, range 0.24-0.29",0.27 % Dose/Organ
same,tissue uptake at 1 h,"[4]; mouse lungs, 60 min, mean of three mice, range 1.6-2.3",1.9 %ID/g
same,"Tissue distribution, % Dose/Organ","[4]; mouse lungs, 120 min, mean of four mice, range 0.09-0.16",0.12 % Dose/Organ
same,tissue uptake at 2 h,"[4]; mouse lungs, 120 min, mean of four mice, range 0.70-1.50",0.95 %ID/g
same,"Tissue distribution, % Dose/Organ","[4]; mouse ovaries, 60 min, mean of three mice, range 0.028-0.057",0.040 % Dose/Organ
same,"Tissue distribution, % Dose/Organ","[4]; mouse ovaries, 120 min, mean of four mice, range 0.009-0.022",0.014 % Dose/Organ
same,"Tissue distribution, % Dose/Organ","[4]; mouse small intestine, 5 min, mean of three mice, range 3.2-6.8",5.3 % Dose/Organ
same,tissue uptake at 5 min,"[4]; mouse small intestine, 5 min, mean of three mice, range 4.0-4.8",4.3 %ID/g
same,"Tissue distribution, % Dose/Organ","[4]; mouse small intestine, 60 min, mean of three mice, range 1.6-3.6",2.9 % Dose/Organ
same,tissue uptake at 1 h,"[4]; mouse small intestine, 60 min, mean of three mice, range 1.7-3.4",2.5 %ID/g
same,"Tissue distribution, % Dose/Organ","[4]; mouse small intestine, 120 min, mean of four mice, range 0.7-1.9",1.3 % Dose/Organ
same,tissue uptake at 2 h,"[4]; mouse small intestine, 120 min, mean of four mice, range 0.8-1.7",1.3 %ID/g
same,"Tissue distribution, % Dose/Organ","[4]; mouse spleen, 5 min, mean of three mice, range 0.82-1.05",0.95 % Dose/Organ
same,tissue uptake at 5 min,"[4]; mouse spleen, 5 min, mean of three mice, range 4.7-6.5",5.8 %ID/g
same,"Tissue distribution, % Dose/Organ","[4]; mouse spleen, 60 min, mean of three mice, range 0.25-0.28",0.26 % Dose/Organ
same,tissue uptake at 1 h,"[4]; mouse spleen, 60 min, mean of three mice, range 1.1-1.9",1.6 %ID/g
same,"Tissue distribution, % Dose/Organ","[4]; mouse spleen, 120 min, mean of four mice, range 0.043-0.073",0.062 % Dose/Organ
same,tissue uptake at 2 h,"[4]; mouse spleen, 120 min, mean of four mice, range 0.40-0.73",0.57 %ID/g
